Holding throughout (assay): CellTiter-Blue cell viability assay
Common to all, as to format: cell-based, human

The test system of one experiment is FUOV1. As to conditions: FUOV1 ovarian cancer cell line, 72 hours, 50% reduction in growth/viability. From the text: Ovarian cancer cell lines were obtained from the American Type Culture Collection (Manassas, Va.) (CAOV3, OV90, OVCAR3, SKOV3, TOV112D); from the European Collection of Cell Cultures, Salisbury, UK (A2780CP, A2780S); or from Kyoto University, Kyoto, Japan (CHI, CHIcisR, M41, M41CSR, Tyknu, and TyknuC is R) or were kind gifts from Dr. Patricia Kruk, Department of Pathology, College of Medicine, University of South Florida, Tampa, Fla., and Susan Murphy, PhD, Dept of OBGYN/Division of GYN Oncology, Duke University, Durham, N.C. (A2008, C13, CAOV2, FUOV1, HeyA8, IGR-OV1, IMCC3, IMCC5, MCAS, OV2008, OVCA420, OVCA429, OVCA432, OVCA433, OVCAR4, OVCAR5, OVCAR8, Dov13, BG1, Ovary1847, OVCAR10, OVCAR2, SK-OV-4).
Cell lines were maintained in RPMI-1640 (Invitrogen, Carlsbad, Calif.) supplemented with 10% fetal bovine serum (Fisher Scientific, Pittsburgh, Pa.), 1% sodium pyruvate, 1% penicillin/streptomycin (Cellgro, Manassas, Va.), and 1% nonessential amino acids (HyClone, Hudson, N.H.). […]
Drug activity was evaluated using a high-throughput CellTiter-Blue cell viability assay. […] Fluorescence was read at […] using a Synergy 4 microplate reader (Bio-Tek Instruments, Inc., Winooski, Vt.). IC50 results were determined using a sigmoidal equilibrium model fit (XLfit 5.2, ID Business Solutions Ltd.). […]

A further experiment deals with MCAS. As to conditions: MCAS ovarian cancer cell line, 72 hours, 50% reduction in growth/viability. The text has this: (§1) Ovarian cancer cell lines were obtained from the American Type Culture Collection (Manassas, Va.) (CAOV3, OV90, OVCAR3, SKOV3, TO[…]); from the European Collection of Cell Cultures, Salisbury, UK (A2780CP, A2780S); or from Kyoto University, Kyoto, Japan ([…], Tyknu, and TyknuC is R) or were kind gifts from Dr. Patricia Kruk, Department of Pathology, College of Medicine, University of South Florida, Tampa, Fla., and Susan Murphy, PhD, Dept of OBGYN/Division of GYN Oncology, Duke University, Durham, N.C. […] Cell lines were maintained in RPMI-1640 (Invitrogen, Carlsbad, Calif.) supplemented with 10% fetal bovine serum (Fisher Scientific, Pittsburgh, Pa.), 1% sodium pyruvate, 1% penicillin/streptomycin (Cellgro, Manassas, Va.), and 1% nonessential amino acids (HyClone, Hudson, N.H.). Mycoplasma testing was performed every 6 months following manufacturer's protocol (Lonza, Rockland, Me.). Drug activity was evaluated using a high-throughput CellTiter-Blue cell viability assay. […] After cell adherence, increasing concentrations of cisplatin, carboplatin (Sigma-Aldrich, St. Louis, Mo.), paclitaxel (Sequoia Research Products Ltd., Pangbourne, UK), or carboplatin plus paclitaxel (carbotaxol: constant molar ratio of carboplatin to paclitaxel of 20,000:1) were added to appropriate wells using an automated pipetting station. Four replicate wells were used for each drug concentration and vehicle controls. […] The cells were incubated with the drug for 72 hours, and 5 μL of CellTiter-Blue reagent (Promega Corp) was added to each well. Fluorescence was read at […] using a Synergy 4 microplate reader (Bio-Tek Instruments, Inc., Winooski, Vt.).

The test system of a further experiment is IMCC5. The note with it: IMCC5 ovarian cancer cell line, 72 hours, 50% reduction in growth/viability.
From the text: as §1

The test system of a further experiment is CHIcisR. The note with it: CHIcisR ovarian cancer cell line, 72 hours, 50% reduction in growth/viability.
From the text: as §1

A further experiment concerns A2780S. As to conditions: A2780S ovarian cancer cell line, 72 hours, 50% reduction in growth/viability.
From the text: as §1

The next experiment has as its system Dov13. The note with it: Dov13 ovarian cancer cell line, 72 hours, 50% reduction in growth/viability.
From the text: as §1

The next experiment concerns OV90. The note with it: OV90 ovarian cancer cell line, 72 hours, 50% reduction in growth/viability.
From the text: as §1

In another experiment the test system is OVCA433. The note with it: OVCA433 ovarian cancer cell line, 72 hours, 50% reduction in growth/viability.
From the text: as §1

A further experiment has as its system OVCAR3. As to conditions: OVCAR3 ovarian cancer cell line, 72 hours, 50% reduction in growth/viability.
From the text: as §1

The subject of the next experiment is M41. As to conditions: M41 ovarian cancer cell line, 72 hours, 50% reduction in growth/viability.
From the text: as §1

Another experiment deals with M41CSR. The note with it: M41CSR ovarian cancer cell line, 72 hours, 50% reduction in growth/viability.
From the text: as §1

The next experiment concerns OVCA432. As to conditions: OVCA432 ovarian cancer cell line, 72 hours, 50% reduction in growth/viability.
From the text: as §1

In a further experiment the test system is A2780CP. As to conditions: A2780CP ovarian cancer cell line, 72 hours, 50% reduction in growth/viability.
From the text: as §1

A further experiment deals with OVCAR4. As to conditions: OVCAR4 ovarian cancer cell line, 72 hours, 50% reduction in growth/viability.
From the text: as §1

Another experiment concerns BG1. As to conditions: BG1 ovarian cancer cell line, 72 hours, 50% reduction in growth/viability.
From the text: as §1

In the case of `CC(=O)O[C@H]1C(=O)[C@@]2(C)[C@H]([C@H](OC(=O)c3ccccc3)[C@]3(O)C[C@H](OC(=O)[C@H](O)[C@@H](NC(=O)c4ccccc4)c4ccccc4)C(C)=C1C3(C)C)[C@]1(OC(C)=O)CO[C@@H]1C[C@@H]2O` [Paclitaxel, paclitaxel], the IC50 turned out to be 4.4 µM with FUOV1 (Homo sapiens); 0.0029 µM with MCAS (Homo sapiens); 0.0031 µM in the experiment with IMCC5 (Homo sapiens); 0.0018 µM in the experiment on CHIcisR (Homo sapiens); 0.0024 µM in the experiment on A2780S (Homo sapiens); 0.0173 µM in the experiment on Dov13 (Homo sapiens). Moreover, the IC50 with OV90 (Homo sapiens, OV-90) came to 0.108 µM; in the experiment on OVCA433 (Homo sapiens), 0.0021 µM; in the experiment on OVCAR3 (Homo sapiens, OVCAR-3), 0.0169 µM; in the experiment on M41 (Homo sapiens), 0.0063 µM; with M41CSR (Homo sapiens) it was 0.0025 µM; in the experiment with OVCA432 (Homo sapiens) it was 0.0063 µM. Further, the IC50 in the experiment with A2780CP (Homo sapiens, A2780C/P) is 0.004 µM; in the experiment with OVCAR4 (Homo sapiens, OVCAR-4), 0.0178 µM; with BG1 (Homo sapiens, BG-1) it was 0.0055 µM.

As to `N.N.O=C([O-])C1(C(=O)[O-])CCC1.[Pt+2]` [Carboplatin, carboplatin], the IC50 with FUOV1 was 87.9 µM; with MCAS, 237 µM; in the experiment on IMCC5 it was 41.3 µM; with CHIcisR it was 20 µM; with A2780S, 24.3 µM; in the experiment with Dov13, 104 µM. Moreover, the IC50 is 213 µM with OV90; 270 µM with OVCA433; 83.7 µM in the experiment on OVCAR3; 41.6 µM in the experiment on M41; 48.2 µM with M41CSR; 63.1 µM in the experiment with OVCA432. Further, the IC50 was 94.2 µM in the experiment with A2780CP, 72 µM in the experiment on OVCAR4 and 144 µM with BG1.

The record behind these values is patent publication US10982284B2, “Compositions and methods APC, CREB, and BAD pathways to assess and affect cancer” (H. Lee Moffitt Cancer Center and Research Institute, Inc., priority 2011, dated 2021).
